Laboratory results published in patent US20160333419A1, “GENE SIGNATURES ASSOCIATED WITH SENSITIVITY TO MDM2 INHIBITORS” (DAIICHI SANKYO COMPANY, LIMITED, priority 2014, published 2016).

What was measured:
Assay in all cases: OncoPanel cytotoxicity assay
Assay type in all cases: cell-based
OE21 = conditions: Homo sapiens, 72 hour incubation
Summary of the method: (§1)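 Cells grown in RPMI 1640 with 10% FBS (or a special medium) at 37° C, 5% CO2 were treated 24 hours after seeding for 72 hours with 10 concentrations (3.16-fold dilutions, 0.1% DMSO final). Nuclei were dye-stained and imaged; IC50 was fit from percent of control relative cell count.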

COR-L105 = conditions: Homo sapiens, 72 hour incubation
Summary of the method: as §1

DMS273 = conditions: Homo sapiens, DMS-273, 72 hour incubation
Summary of the method: as §1

COR-L23 = conditions: Homo sapiens, 72 hour incubation
Summary of the method: as §1

CAL-54 = conditions: Homo sapiens, 72 hour incubation
Summary of the method: as §1

VCaP = conditions: Homo sapiens, 72 hour incubation
Summary of the method: as §1

WM-115 = conditions: Homo sapiens, 72 hour incubation
Summary of the method: as §1

CRO-AP5 = conditions: Homo sapiens, 72 hour incubation
Summary of the method: as §1

Work on `CC1(C)CCC2(CC1)N[C@@H](C(=O)N[C@@H]1CC[C@@H](C(N)=O)OC1)[C@H](c1ccnc(Cl)c1F)[C@]21C(=O)Nc2cc(Cl)ccc21` [Compound B, (3′R,4′S,5′R)—N-[(3R,6S)-6-carbamoyltetrahydro-2H-pyran-3-yl]-6″-chloro-4′-(2-chloro-3-fluoropyridin-4-yl)-4,4-dimethyl-2″-oxo-1″,2″-dihydrodispiro[cyclohexane-1,2′-pyrrolidine-3′,3″-indole]-5′-carboxamide] yielded an IC50 (OE21) of 9810 nM, an IC50 (COR-L105) of 168 nM and an IC50 (DMS273) of 9080 nM. The IC50 (COR-L23) was 8980 nM.

`CC[C@@H]1CNC2(CC2)CN1C(=O)[C@@H]1C[C@@H](F)CN1C(=O)C1=C(C(C)C)N2C(=N[C@@](C)(c3ccc(Cl)nc3)[C@H]2c2ccc(Cl)c(F)c2)S1` [Compound A, [(5R,6S)-5-(4-Chloro-3-fluorophenyl)-6-(6-chloropyridin-3-yl)-6-methyl-3-(propan-2-yl)-5,6-dihydroimidazo[2,1-b][1,3]thiazol-2-yl][(2S,4R)-2-{[(6R)-6-ethyl-4,7-diazaspiro[2.5]oct-7-yl]carbonyl}-4-fluoropyrrolidin-1-yl]methanone] showed an IC50 (CAL-54) of 602 nM, an IC50 (VCaP) greater than 40000 nM and an IC50 (WM-115) of 564 nM. It also gave an IC50 (CRO-AP5) of 220 nM.
